# From article PMC6792352, “Limited Chemical Structural Diversity Found to Modulate Thyroid Hormone Receptor in the Tox21 Chemical Library” (Environmental Health Perspectives, 2019)
# Counter-ions that a name gives are not always drawn.
# Experiment: in vitro
# Details: rat, gh3-tre-luc cells, AC50 (uM) modified / 1000
row,SMILES,CC50 at 24 h [µM]
1,CC/C=C\CCOC(C)OCC (stereo not drawn) [Acetaldehyde ethyl cis-3-hexenyl acetal],> 70
2,O=C(O)c1cc(/N=N/c2ccc(S(=O)(=O)Nc3ccccn3)cc2)ccc1O [Sulfasalazine],> 90
3,COc1cc(C)ccc1C(C)C [2-Methoxy-4-methyl-1-(propan-2-yl)benzene],> 90
4,Cc1ccnc2c1NC(=O)c1cccnc1N2C1CC1 [Nevirapine],> 90
5,"C=C(C)C(=O)OCCCCCCCCCCOC(=O)C(=C)C [1,10-Decanediol dimethacrylate]",> 90
6,CCOC(=O)c1ccc(C#Cc2ccc3c(c2)C(C)(C)CCS3)nc1 [Tazarotene],> 50
7,CCNc1nc(NC(C)CC)nc(OC)n1 (stereo not shown) [Secbumeton],> 90
8,CC(C)COC(=O)c1ccccc1C(=O)OCC(C)C [Diisobutyl phthalate],> 90
9,CCC(C)(C)C1CCCCC1OC(C)=O (stereo not shown) [2-(2-Methylbutan-2-yl)cyclohexyl acetate],> 90
10,COc1cccc2c1C(=O)c1c(O)c3c(c(O)c1C2=O)C[C@@](O)(C(=O)CO)C[C@@H]3O[C@H]1C[C@H](N)[C@H](O[C@@H]2CCCCO2)[C@H](C)O1 [Pirarubicin],1.64
11,CCNC(=O)NCc1cccc(Cl)c1 [Lozilurea],> 50
12,O=C1c2cccc(O)c2C(=O)c2c(O)cccc21 [Danthron],> 90
13,"Cc1cc(C(C)(C)c2cc(C)c(O)c(C)c2)cc(C)c1O [4,4'-Propane-2,2-diylbis(2,6-dimethylphenol)]",16.9
14,"O=C1NC(=O)C(c2ccccc2)(c2ccccc2)N1 [5,5-Diphenylhydantoin]",> 90
15,CC/C=C/CCO [(E)-3-Hexen-1-ol],> 90
16,CO/C=C(/C(=O)OC)c1ccccc1Oc1cc(Oc2ccccc2C#N)ncn1 [Azoxystrobin],> 100
17,C=C(C)C(=O)OCCCCCCCCCCCCCCCCCC [Stearyl methacrylate],> 20
18,CCCCCCCCCCCCCCC[C@H](O)[C@@H](N)CO [Safingol],> 50
19,Clc1ccc(COC(Cn2ccnc2)c2ccc(Cl)cc2Cl)c(Cl)c1 (stereo not shown) [Miconazole],15
20,Cc1ccc(C(C)C)cc1O [Isopropyl-o-cresol],> 90
21,"CC1(C)CC(O)CC(C)(C)N1[O] [4-Hydroxy-2,2,6,6-tetramethylpiperidin-1-yl)oxidanyl]",> 90
22,"O=C(O)c1cc2ccccc2nc1C(=O)O [2,3-Quinolinedicarboxylic acid]",> 90
23,CCCCC(=O)Cl [Valeryl chloride],> 90
24,CNCCC=C1c2ccccc2CCc2ccccc21 [Nortriptyline hydrochloride],12.6
25,"Nc1ccc(Cl)c(N)c1 [4-Chloro-1,3-diaminobenzene]",> 90

row,SMILES,CC50 at 24 h [µM]
1,C=CC(=O)OCCOCC(CC)(COCCOC(=O)C=C)COCCOC(=O)C=C [Trimethylolpropane ethoxylate triacrylate],23.1
2,Cc1cc(C(F)(C(F)(F)F)C(F)(F)F)ccc1NC(=O)c1cccc(I)c1C(=O)NC(C)(C)CS(C)(=O)=O [Flubendiamide],> 70
3,CC(=O)[C@H]1CC[C@H]2[C@@H]3C[C@H](C)C4=CC(=O)CC[C@]4(C)[C@H]3[C@@H](O)C[C@]12C [Medrysone],> 20
4,COc1cc(N)c(Cl)cc1C(=O)NC1CCN(CCCOc2ccc(F)cc2)CC1OC (stereo not shown) [Cisapride],13
5,"Cc1ccc2c(c1)OCC(=O)CO2 [7-Methyl-2H-1,5-benzodioxepin-3(4H)-one]",> 90
6,CN1C(=O)C(O)N=C(c2ccccc2)c2cc(Cl)ccc21 (stereo not shown) [Temazepam],> 90
7,C=CC(=O)NC(C)(C)C [tert-Butylacrylamide],> 90
8,CC(C)[N+](C)(C)CC(O)COc1cccc2ccccc12 (stereo not shown) [Pranolium chloride],> 50
9,CC(Cc1ccccc1)(NC(=O)CN)c1ccccc1 (stereo not shown) [Remacemide hydrochloride],> 50
10,CNCc1ccccc1 [N-Methylbenzylamine hydrochloride],> 50
11,NNC(=O)CCCCC(=O)NN [Hexanedihydrazide],> 90
12,C1=Cc2cccc3cccc1c23 [Acenaphthylene],> 90
13,FC1(F)C(F)(F)C(F)(F)C2(F)C(F)(C1(F)F)C(F)(F)C(F)(F)C1(F)C(F)(F)C(F)(F)C(F)(F)C(F)(F)C12F (stereo not shown) [Tetracosafluorotetradecahydrophenanthrene],> 80
14,"CC(=O)c1ccc(C(C)=O)cc1 [1,1-(1,4-Phenylene)bis-ethanone]",> 90
15,O=C(O)c1cc(=O)c2c(OCC(O)COc3cccc4oc(C(=O)O)cc(=O)c34)cccc2o1 [Cromolyn sodium],> 50
16,COc1ccc(COC=O)cc1 [4-Methoxybenzyl formate],> 90
17,CCc1ccccc1O [2-Ethylphenol],> 90
18,N#CCCCCC#N [Hexanedinitrile],> 90
19,C=CCCCC [1-Hexene],> 100
20,CC(O)CNCC(C)O (stereo not shown) [Diisopropanolamine],> 90
21,COCc1cnc(C2=NC(C)(C(C)C)C(=O)N2)c(C(=O)O)c1 (stereo not shown) [Imazamox],> 90
22,OC(CN1CCC(Cc2ccc(F)cc2)CC1)c1ccc(Cl)cc1 (stereo not shown) [Eliprodil],> 50
23,CCCCCC/C=C/CCCCCCCC(=O)O [(E)-Hexadec-9-enoic acid],> 90
24,"Cc1nn(C)c(Oc2ccccc2)c1C=NOCc1ccc(C(=O)OC(C)(C)C)cc1 [Fenpyroximate (Z,E)]",59.7
25,"Cc1cc(C)c(N)cc1C [2,4,5-Trimethylaniline]",> 90

row,SMILES,CC50 at 24 h [µM]
1,"S=C(NC1CCCCC1)NC1CCCCC1 [N,N'-Dicyclohexylthiourea]",> 90
2,"CC(C)CC(O)CC(C)C [2,6-Dimethyl-4-heptanol]",> 90
3,CC(C)N(C(=O)COc1nnc(C(F)(F)F)s1)c1ccc(F)cc1 [Flufenacet],> 90
4,NCCCCCC(=O)O [6-Aminocaproic acid],> 20
5,C=C(C)C(=O)OCCNC(C)(C)C [2-(tert-Butylamino)ethyl 2-methylprop-2-enoate],> 90
6,CCCCC(=O)N(Cc1ccc(-c2ccccc2-c2nnn[nH]2)cc1)[C@H](C(=O)O)C(C)C [Valsartan],> 50
7,O=C1NC(=O)[C@@]2(CCOc3ccc(F)cc32)N1 [Sorbinil],> 50
8,"O=C(O)c1c(Cl)ccc(Cl)c1Cl [2,3,6-Trichlorobenzoic acid]",> 90
9,COc1ccc(C(=O)c2ccccc2)c(O)c1 [2-Hydroxy-4-methoxybenzophenone],> 50
10,CSc1ccc(C=O)cc1 [4-(Methylthio)benzaldehyde],> 90
11,COc1cc(C(=O)N2CCCCCCC2)cc(OC)c1OC [Trocimine],> 50
12,CCOC(CN1CCN(CC(C)C(=O)c2ccccc2)CC1)c1ccccc1 (stereo not shown) [Eprazinone dihydrochloride],> 50
13,CC(C)(C)NCC(O)COc1cccc2c1C[C@H](O)[C@H](O)C2 (mixture of isomers) [Nadolol],> 20
14,"COc1ccc(OC)c(NC(=O)CC(C)=O)c1 [N-(2,5-Dimethoxyphenyl)-3-oxobutanamide]",> 90
15,Cc1cc2c(cc1C(F)(F)F)N(C(=O)Nc1ccc(Oc3cccnc3C)nc1)CC2 [SB243213A],69.4
16,CCOC(=O)[C@H](CCc1ccccc1)N[C@H]1CS[C@H](c2cccs2)CN(CC(=O)O)C1=O [Temocapril hydrochloride],> 50
17,COc1cc2c(cc1OC)C(C(C(=O)N(CCc1ccc(OC)c(OC)c1OC)CCc1ccc(OC)c(OC)c1OC)c1ccccc1)=NCC2 (stereo not shown) [Pinokalant hydrochloride],21.9
18,CCN1CCC[C@H]1CNC(=O)c1cc(S(N)(=O)=O)ccc1OC [Levosulpiride],> 50
19,C#CCC1=C(C)C(OC(=O)C2C(C=C(C)C)C2(C)C)CC1=O (stereo not shown) [Prallethrin],66.6
20,Nc1c(CC(=O)O)cccc1C(=O)c1ccccc1 [Amfenac sodium],> 50
21,O=S(=O)(O)c1ccc(Nc2nc(Nc3ccc(/C=C/c4ccc(Nc5nc(Nc6ccc(S(=O)(=O)O)cc6)nc(N(CCO)CCO)n5)cc4S(=O)(=O)O)c(S(=O)(=O)O)c3)nc(N(CCO)CCO)n2)cc1 [C.I. Fluorescent Brightener 220],> 60
22,CCCc1ccc(O)cc1 [4-Propylphenol],> 90
23,CNCCCN1c2ccccc2CCc2ccccc21 [Desipramine hydrochloride],7.08
24,CC(C)CCC[C@@H](C)[C@H]1CC[C@H]2[C@@H]3CC=C4C[C@@H](O)CC[C@]4(C)[C@H]3CC[C@]12C [Cholesterol],> 50
25,C#C[C@]1(O)CC[C@H]2[C@@H]3CCC4=C(CCC(=O)C4)[C@H]3CC[C@@]21C [Norethynodrel],> 20

# Same assay, conditions: rat, gh3-tre-luc cells, AC50 (uM) modified / 1000, Tox21_110001=Tox21_200156; viability, 1 nM T3 present, 24 h
row,SMILES,CC50 at 24 h [µM]
1,"Brc1ccc(Oc2cc(Br)c(Br)cc2Br)c(Br)c1 [2,2',4,4',5-Pentabromodiphenyl ether]",> 90

# Same assay, conditions: rat, gh3-tre-luc cells, AC50 (uM) modified / 1000, Tox21_110001=Tox21_200619; viability, 1 nM T3 present, 24 h
row,SMILES,CC50 at 24 h [µM]
1,CCCBr [1-Bromopropane],> 90

# Same assay, conditions: rat, gh3-tre-luc cells, AC50 (uM) modified / 1000, Tox21_110001=Tox21_201911; viability, 1 nM T3 present, 24 h
row,SMILES,CC50 at 24 h [µM]
1,ClC1=C(Cl)C2(Cl)C3C(Cl)C=CC3C1(Cl)C2(Cl)Cl (stereo not shown) [Heptachlor],37.8

# Same assay, conditions: rat, gh3-tre-luc cells, AC50 (uM) modified / 1000, Tox21_110001=Tox21_202217; viability, 1 nM T3 present, 24 h
row,SMILES,CC50 at 24 h [µM]
1,CC[N+](=O)[O-] [Nitroethane],> 90

# Same assay, conditions: rat, gh3-tre-luc cells, AC50 (uM) modified / 1000, Tox21_110001=Tox21_300534; viability, 1 nM T3 present, 24 h
row,SMILES,CC50 at 24 h [µM]
1,ClC1=C(Cl)C2(Cl)C3C(Cl)C=CC3C1(Cl)C2(Cl)Cl (stereo not shown) [Heptachlor],42.6

# Same assay, conditions: rat, gh3-tre-luc cells, AC50 (uM) modified / 1000, Tox21_110001=Tox21_301568; viability, 1 nM T3 present, 24 h
row,SMILES,CC50 at 24 h [µM]
1,CCC1COC(Cn2cncn2)(c2ccc(Cl)cc2Cl)O1 (stereo not shown) [Etaconazole],> 90

# Same assay, conditions: rat, gh3-tre-luc cells, AC50 (uM) modified / 1000, Tox21_110001=Tox21_400063; viability, 1 nM T3 present, 24 h
row,SMILES,CC50 at 24 h [µM]
1,c1cc2ccc3cccc4ccc(c1)c2c34 [Pyrene],> 100
